# Patent publication US20230293526A1, “METHOD FOR TREATING CANCER WITH A REVERSE TRANSCRIPTASE INHIBITOR” (PrimeFour Therapeutics, Inc., priority 2020, published 2023)
# Key:
# human LINE-1 = test: Human LINE-1 (L1) retrotransposition dual-luciferase reporter assay in HeLa cells; type: cell-based; settings: Homo sapiens, HeLa, 72 h, read-out: Human LINE-1 IC50 (Human L1 activity inhibition)
# Method in brief: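 Compound dilution series (final DMSO 0.2%) added right after transfecting HeLa cells with the pYX017 L1 dual-luciferase reporter; 72 h culture at 37 °C, 5% CO2, triplicates. IC50 fitted by non-linear logistic regression to firefly-to-Renilla luminescence ratio (×10,000).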
# cancer cell lines = test: Cancer cell proliferation activity of representative nucleosides, CellTiterGlo 72 h (Example 7, Tables 8 and 9); type: cell-based; settings: 72 h
# Method in brief: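 Percent viability was set against 0.1% DMSO (100%) and 10 μM staurosporine (0%), with signal from CellTiterGlo luminescence. Dose-response treatment began one day after seeding and lasted 72 h at 37° C under 5% or 10% CO2, with 0.1% final DMSO.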
structure (smiles),measurement,setting,value
C#C[C@]1(CO)O[C@@H](n2cc(F)c(=O)[nH]c2=O)C[C@@H]1O [compound 15],IC50,human LINE-1,0.833 µM
same,IC50,"cancer cell lines; 72 h, 5637, bladder",0.37 µM
same,IC50,"cancer cell lines; CLS439, bladder",> 50 µM
same,IC50,"cancer cell lines; HS729, muscle",> 50 µM
same,IC50,"cancer cell lines; J82, bladder",> 50 µM
same,IC50,"cancer cell lines; JAR, placenta",> 50 µM
same,IC50,"cancer cell lines; MT3, breast",> 50 µM
same,IC50,"cancer cell lines; PC3, prostate",> 50 µM
same,IC50,"cancer cell lines; RD, muscle",> 50 µM
same,IC50,"cancer cell lines; T24, bladder",> 50 µM
same,IC50,"cancer cell lines; Homo sapiens, 22Rv1, 72 h, 22RV1, prostate",3.69 µM
same,IC50,"cancer cell lines; Homo sapiens, 786-0, 72 h, 786O, kidney",> 50 µM
same,IC50,"cancer cell lines; Homo sapiens, A204, 72 h, A204, muscle",> 50 µM
same,IC50,"cancer cell lines; Homo sapiens, A549, 72 h, A549, lung",> 50 µM
same,IC50,"cancer cell lines; Homo sapiens, A673, 72 h, A673, bone",> 50 µM
same,IC50,"cancer cell lines; Homo sapiens, A2780, 72 h, A2780, ovary",> 50 µM
same,IC50,"cancer cell lines; Homo sapiens, A-375, 72 h, A375, skin",> 50 µM
same,IC50,"cancer cell lines; Homo sapiens, A-431, 72 h, A431, skin",1.42 µM
same,IC50,"cancer cell lines; Homo sapiens, ACHN, kidney",0.94 µM
same,IC50,"cancer cell lines; Homo sapiens, ASPC1, 72 h, ASPC1, pancreas",0.49 µM
same,IC50,"cancer cell lines; Homo sapiens, BT-20, 72 h, BT20, breast",> 50 µM
same,IC50,"cancer cell lines; Homo sapiens, BXPC-3, 72 h, BXPC3, pancreas",0.59 µM
same,IC50,"cancer cell lines; Homo sapiens, C-33-A, C33A, endometrial",3.07 µM
same,IC50,"cancer cell lines; Homo sapiens, CAKI-1, 72 h, CAKI1, kidney",> 50 µM
same,IC50,"cancer cell lines; Homo sapiens, COLO 205, 72 h, COLO205, colon",0.87 µM
same,IC50,"cancer cell lines; Homo sapiens, COLO-678, 72 h, COLO678, colon",> 50 µM
same,IC50,"cancer cell lines; Homo sapiens, Ca-Ski, CASKI, endometrial",> 50 µM
same,IC50,"cancer cell lines; Homo sapiens, Caco-2, 72 h, CACO2, colon",> 50 µM
same,IC50,"cancer cell lines; Homo sapiens, Calu-6, 72 h, CALU6, lung",> 50 µM
same,IC50,"cancer cell lines; Homo sapiens, DLD-1, 72 h, DLD1, colon",> 50 µM
same,IC50,"cancer cell lines; Homo sapiens, DU-145, 72 h, DU145, prostate",> 50 µM
same,IC50,"cancer cell lines; Homo sapiens, EFO-21, 72 h, EFO21, ovary",> 50 µM
same,IC50,"cancer cell lines; Homo sapiens, EJ-28, 72 h, EJ28, bladder",> 50 µM
same,IC50,"cancer cell lines; Homo sapiens, Granta-519, 72 h, GRANTA-519, hematological",0.35 µM
same,IC50,"cancer cell lines; Homo sapiens, HCT-15, 72 h, HCT15, colon",> 50 µM
same,IC50,"cancer cell lines; Homo sapiens, HCT-116, 72 h, HCT116, colon",> 50 µM
same,IC50,"cancer cell lines; Homo sapiens, HEK293, 72 h, HEK293, kidney",> 50 µM
same,IC50,"cancer cell lines; Homo sapiens, HL-60, 72 h, HL-60, hematological",> 50 µM
same,IC50,"cancer cell lines; Homo sapiens, HT-29, 72 h, HT29, colon",> 50 µM
same,IC50,"cancer cell lines; Homo sapiens, HT-1080, 72 h, HT1080, connective tissue",> 50 µM
same,IC50,"cancer cell lines; Homo sapiens, HeLa, endometrial",> 50 µM
same,IC50,"cancer cell lines; Homo sapiens, HepG2, 72 h, HEPG2, liver",> 50 µM
same,IC50,"cancer cell lines; Homo sapiens, Hs-578T, HS578T, breast",> 50 µM
same,IC50,"cancer cell lines; Homo sapiens, IGROV-1, 72 h, IGROV1, ovary",> 50 µM
same,IC50,"cancer cell lines; Homo sapiens, IMR-90, 72 h, IMR90, lung",> 50 µM
same,IC50,"cancer cell lines; Homo sapiens, JEG-3, 72 h, JEG3, placenta",> 50 µM
same,IC50,"cancer cell lines; Homo sapiens, JIMT-1, 72 h, JIMT1, breast",> 50 µM
same,IC50,"cancer cell lines; Homo sapiens, K562, 72 h, K-562, hematological",> 50 µM
same,IC50,"cancer cell lines; Homo sapiens, Kasumi 1, 72 h, KASUMI-1, hematological",> 50 µM
same,IC50,"cancer cell lines; Homo sapiens, L-363, 72 h, L-363, hematological",> 50 µM
same,IC50,"cancer cell lines; Homo sapiens, LoVo, colon",2.06 µM
same,IC50,"cancer cell lines; Homo sapiens, MCF7, 72 h, MCF7, breast",> 50 µM
same,IC50,"cancer cell lines; Homo sapiens, MDA-MB-231, 72 h, MDAMB231, breast",> 50 µM
same,IC50,"cancer cell lines; Homo sapiens, MDA-MB-435, 72 h, MDAMB435, skin",> 50 µM
same,IC50,"cancer cell lines; Homo sapiens, MDA-MB-436, 72 h, MDAMB436, breast",> 50 µM
same,IC50,"cancer cell lines; Homo sapiens, MDA-MB-468, 72 h, MDAMB468, breast",> 50 µM
same,IC50,"cancer cell lines; Homo sapiens, MG-63, 72 h, MG63, bone",> 50 µM
same,IC50,"cancer cell lines; Homo sapiens, MHH-ES-1, 72 h, MHHES1, bone",> 50 µM
same,IC50,"cancer cell lines; Homo sapiens, MIA PaCa-2, 72 h, MIAPACA2, pancreas",> 50 µM
same,IC50,"cancer cell lines; Homo sapiens, MINO, hematological",0.06 µM
same,IC50,"cancer cell lines; Homo sapiens, MV4-11, 72 h, MV4-11, hematological",1.72 µM
same,IC50,"cancer cell lines; Homo sapiens, NCI-H23, 72 h, NCI-H23, lung",> 50 µM
same,IC50,"cancer cell lines; Homo sapiens, NCI-H82, 72 h, NCIH82, lung",> 50 µM
same,IC50,"cancer cell lines; Homo sapiens, NCI-H292, 72 h, NCIH292, lung",> 50 µM
same,IC50,"cancer cell lines; Homo sapiens, NCI-H460, 72 h, NCIH460, ung",> 50 µM
same,IC50,"cancer cell lines; Homo sapiens, OVCAR-3, 72 h, OVCAR3, ovary",> 50 µM
same,IC50,"cancer cell lines; Homo sapiens, OVCAR-4, 72 h, OVCAR4, ovary",> 50 µM
same,IC50,"cancer cell lines; Homo sapiens, PANC-1, 72 h, PANC1, pancreas",> 50 µM
same,IC50,"cancer cell lines; Homo sapiens, PLC-PRF-5, 72 h, PLCPRF5, liver",> 50 µM
same,IC50,"cancer cell lines; Homo sapiens, Panc1005, 72 h, PANC1005, pancreas",> 50 µM
same,IC50,"cancer cell lines; Homo sapiens, Ramos, hematological",1.18 µM
same,IC50,"cancer cell lines; Homo sapiens, SAOS-2, 72 h, SAOS2, bone",> 50 µM
same,IC50,"cancer cell lines; Homo sapiens, SF-268, 72 h, SF268, brain",> 50 µM
same,IC50,"cancer cell lines; Homo sapiens, SF-295, 72 h, SF295, brain",> 50 µM
same,IC50,"cancer cell lines; Homo sapiens, SK-BR-3, 72 h, SKBR3, breast",0.37 µM
same,IC50,"cancer cell lines; Homo sapiens, SK-HEP1, 72 h, SKHEP1, liver",> 50 µM
same,IC50,"cancer cell lines; Homo sapiens, SK-LMS-1, 72 h, SKLMS1, uterus",> 50 µM
same,IC50,"cancer cell lines; Homo sapiens, SK-MEL-5, 72 h, SKMEL5, skin",> 50 µM
same,IC50,"cancer cell lines; Homo sapiens, SK-MEL-28, 72 h, SKMEL28, skin",> 50 µM
same,IC50,"cancer cell lines; Homo sapiens, SK-N-AS, SKNAS, brain",> 50 µM
same,IC50,"cancer cell lines; Homo sapiens, SK-N-SH, SKNSH, brain",> 50 µM
same,IC50,"cancer cell lines; Homo sapiens, SK-OV-3, 72 h, SKOV3, ovary",> 50 µM
same,IC50,"cancer cell lines; Homo sapiens, SNB-75, 72 h, SNB75, brain",> 50 µM
same,IC50,"cancer cell lines; Homo sapiens, SU-DHL10, 72 h, SU-DHL-10, hematological",3.86 µM
same,IC50,"cancer cell lines; Homo sapiens, SU-DHL-6, 72 h, SU-DHL-6, hematological",1.3 µM
same,IC50,"cancer cell lines; Homo sapiens, SW-620, 72 h, SW620, colon",> 50 µM
same,IC50,"cancer cell lines; Homo sapiens, TE-671, 72 h, TE671, muscle",> 50 µM
same,IC50,"cancer cell lines; Homo sapiens, THP-1, 72 h, THP-1, hematological",> 50 µM
same,IC50,"cancer cell lines; Homo sapiens, U2OS, bone",> 50 µM
same,IC50,"cancer cell lines; Homo sapiens, U-87 MG, U87MG, brain",> 50 µM
same,IC50,"cancer cell lines; Homo sapiens, UMUC3, 72 h, UMUC3, bladder",> 50 µM
same,IC50,"cancer cell lines; Homo sapiens, UO-31, 72 h, UO31, kidney",> 50 µM
same,IC50,"cancer cell lines; Homo sapiens, WSU-NHL, hematological",0.87 µM
same,IC50,"cancer cell lines; NCI-H358M, NCIH358M, lung",0.67 µM
same,IC50,"cancer cell lines; PBMC, hematological",> 50 µM
same,IC50,"cancer cell lines; RD-ES, RDES, bone",> 50 µM
